Measurements taken from ChEMBL document CHEMBL3885881, “DrugMatrix”.

Species on record: Rattus norvegicus
Test: DrugMatrix - Regimen: Daily Repeat
Format: toxicity, organism-based, Sprague-Dawley
Parameters: regimen Daily Repeat, gender Male, age 6-8 weeks
Conditions: in vivo, iv, vehicle 100 % SALINE; for ABSOLUTE BASOPHIL / ABSOLUTE EOSINOPHIL / ABSOLUTE LYMPHOCYTE / ABSOLUTE MONOCYTE / ABSOLUTE SEGMENTED NEUTROPHIL / BASOPHIL / EOSINOPHIL / ERYTHROCYTE COUNT / HEMATOCRIT / HEMOGLOBIN / LEUKOCYTE COUNT / LYMPHOCYTE / MEAN CORPUSCULAR HEMOGLOBIN / MEAN CORPUSCULAR HEMOGLOBIN CONCENTRATION / MEAN CORPUSCULAR VOLUME / MONOCYTE / NEUTROPHIL / NUCLEATED RED BLOOD CELLS / PLATELET COUNT: tissue Blood; for ALANINE AMINOTRANSFERASE / ALBUMIN / ALKALINE PHOSPHATASE / ASPARTATE AMINOTRANSFERASE / BLOOD UREA NITROGEN / CARBON DIOXIDE / CHLORIDE / CHOLESTEROL / CREATINE PHOSPHOKINASE / CREATININE / GLUCOSE / LACTATE DEHYDROGENASE / LIPASE / PHOSPHORUS / POTASSIUM / SODIUM / TOTAL BILIRUBIN / TOTAL PROTEIN: tissue Plasma
[1] = 1 mg/kg, 72 h, dose level Low, time 3 day
[2] = 1 mg/kg, 120 h, dose level Low, time 5 day
[3] = 76 mg/kg, 72 h, dose level High, time 3 day
[4] = 76 mg/kg, 120 h, dose level High, time 5 day

Compound: C=CCN1CC[C@]23c4c5ccc(O)c4O[C@H]2C(=O)CC[C@@]3(O)[C@H]1C5 [NALOXONE]
- ABSOLUTE BASOPHIL [1]: 0 CELLS/uL
- ABSOLUTE EOSINOPHIL [1]: 394 CELLS/uL
- ABSOLUTE LYMPHOCYTE [1]: 14212 CELLS/uL
- ABSOLUTE MONOCYTE [1]: 229.67 CELLS/uL
- ABSOLUTE SEGMENTED NEUTROPHIL [1]: 1597.67 CELLS/uL
- BASOPHIL [1]: 0%
- EOSINOPHIL [1]: 2.33%
- ERYTHROCYTE COUNT [1]: 5.29 x10E6/uL
- HEMATOCRIT [1]: 33.37%
- HEMOGLOBIN [1]: 12.43 G/DL
- LEUKOCYTE COUNT [1]: 16.43 x10E3/uL
- LYMPHOCYTE [1]: 86.33%
- MEAN CORPUSCULAR HEMOGLOBIN [1]: 23.5 pg
- MEAN CORPUSCULAR HEMOGLOBIN CONCENTRATION [1]: 37.23 G/DL
- MEAN CORPUSCULAR VOLUME [1]: 63.13 fL
- MONOCYTE [1]: 1.33%
- NEUTROPHIL [1]: 10%
- NUCLEATED RED BLOOD CELLS [1]: 0 /100WBC
- PLATELET COUNT [1]: 1087.33 x10E3/uL
- ALANINE AMINOTRANSFERASE [1]: 52 u/L
- ALBUMIN [1]: 4.2 G/DL
- ALKALINE PHOSPHATASE [1]: 368.67 u/L
- ASPARTATE AMINOTRANSFERASE [1]: 96 u/L
- BLOOD UREA NITROGEN [1]: 16.33 mg/dL
- CARBON DIOXIDE [1]: 26.67 mmol/L
- CHLORIDE [1]: 103.67 MEQ/L
- CHOLESTEROL [1]: 70.67 mg/dL
- CREATINE PHOSPHOKINASE [1]: 678.67 u/L
- CREATININE [1]: 0.2 mg/dL
- GLUCOSE [1]: 178.33 mg/dL
- LACTATE DEHYDROGENASE [1]: 116.67 u/L
- LIPASE [1]: 9.67 u/L
- PHOSPHORUS [1]: 12.63 mg/dL
- POTASSIUM [1]: 6.32 MEQ/L
- SODIUM [1]: 144.23 MEQ/L
- TOTAL BILIRUBIN [1]: 0.2 mg/dL
- TOTAL PROTEIN [1]: 5.9 G/DL
- ABSOLUTE BASOPHIL [2]: 0 CELLS/uL
- ABSOLUTE EOSINOPHIL [2]: 66.67 CELLS/uL
- ABSOLUTE LYMPHOCYTE [2]: 9301.33 CELLS/uL
- ABSOLUTE MONOCYTE [2]: 105.67 CELLS/uL
- ABSOLUTE SEGMENTED NEUTROPHIL [2]: 1026.33 CELLS/uL
- BASOPHIL [2]: 0%
- EOSINOPHIL [2]: 0.67%
- ERYTHROCYTE COUNT [2]: 5.74 x10E6/uL
- HEMATOCRIT [2]: 35.87%
- HEMOGLOBIN [2]: 13.53 G/DL
- LEUKOCYTE COUNT [2]: 10.5 x10E3/uL
- LYMPHOCYTE [2]: 88.67%
- MEAN CORPUSCULAR HEMOGLOBIN [2]: 23.57 pg
- MEAN CORPUSCULAR HEMOGLOBIN CONCENTRATION [2]: 37.73 G/DL
- MEAN CORPUSCULAR VOLUME [2]: 62.5 fL
- MONOCYTE [2]: 1%
- NEUTROPHIL [2]: 9.67%
- NUCLEATED RED BLOOD CELLS [2]: 0.33 /100WBC
- PLATELET COUNT [2]: 1255.33 x10E3/uL
- ALANINE AMINOTRANSFERASE [2]: 45.67 u/L
- ALBUMIN [2]: 4.1 G/DL
- ALKALINE PHOSPHATASE [2]: 363 u/L
- ASPARTATE AMINOTRANSFERASE [2]: 88.67 u/L
- BLOOD UREA NITROGEN [2]: 15.67 mg/dL
- CARBON DIOXIDE [2]: 25 mmol/L
- CHLORIDE [2]: 106 MEQ/L
- CHOLESTEROL [2]: 63.67 mg/dL
- CREATINE PHOSPHOKINASE [2]: 400.33 u/L
- CREATININE [2]: 0.18 mg/dL
- GLUCOSE [2]: 177.67 mg/dL
- LACTATE DEHYDROGENASE [2]: 358 u/L
- LIPASE [2]: 8.33 u/L
- PHOSPHORUS [2]: 12.67 mg/dL
- POTASSIUM [2]: 6.28 MEQ/L
- SODIUM [2]: 144.83 MEQ/L
- TOTAL BILIRUBIN [2]: 0.23 mg/dL
- TOTAL PROTEIN [2]: 6.2 G/DL
- ABSOLUTE BASOPHIL [3]: 0 CELLS/uL
- ABSOLUTE EOSINOPHIL [3]: 219 CELLS/uL
- ABSOLUTE LYMPHOCYTE [3]: 13357.67 CELLS/uL
- ABSOLUTE MONOCYTE [3]: 239.33 CELLS/uL
- ABSOLUTE SEGMENTED NEUTROPHIL [3]: 1117.33 CELLS/uL
- BASOPHIL [3]: 0%
- EOSINOPHIL [3]: 1.33%
- ERYTHROCYTE COUNT [3]: 5.83 x10E6/uL
- HEMATOCRIT [3]: 36.57%
- HEMOGLOBIN [3]: 14.13 G/DL
- LEUKOCYTE COUNT [3]: 14.93 x10E3/uL
- LYMPHOCYTE [3]: 89.67%
- MEAN CORPUSCULAR HEMOGLOBIN [3]: 24.23 pg
- MEAN CORPUSCULAR HEMOGLOBIN CONCENTRATION [3]: 38.67 G/DL
- MEAN CORPUSCULAR VOLUME [3]: 62.73 fL
- MONOCYTE [3]: 1.67%
- NEUTROPHIL [3]: 7.33%
- NUCLEATED RED BLOOD CELLS [3]: 0 /100WBC
- PLATELET COUNT [3]: 1424 x10E3/uL
- ALANINE AMINOTRANSFERASE [3]: 46.67 u/L
- ALBUMIN [3]: 4.23 G/DL
- ALKALINE PHOSPHATASE [3]: 304.67 u/L
- ASPARTATE AMINOTRANSFERASE [3]: 92.33 u/L
- BLOOD UREA NITROGEN [3]: 15.67 mg/dL
- CARBON DIOXIDE [3]: 24.33 mmol/L
- CHLORIDE [3]: 110.67 MEQ/L
- CHOLESTEROL [3]: 46 mg/dL
- CREATINE PHOSPHOKINASE [3]: 383.33 u/L
- CREATININE [3]: 0.12 mg/dL
- GLUCOSE [3]: 104 mg/dL
- LACTATE DEHYDROGENASE [3]: 123 u/L
- LIPASE [3]: 7.67 u/L
- PHOSPHORUS [3]: 14.33 mg/dL
- POTASSIUM [3]: 5.64 MEQ/L
- SODIUM [3]: 148.07 MEQ/L
- TOTAL BILIRUBIN [3]: 0.1 mg/dL
- TOTAL PROTEIN [3]: 6.3 G/DL
- ABSOLUTE BASOPHIL [4]: 0 CELLS/uL
- ABSOLUTE EOSINOPHIL [4]: 118.67 CELLS/uL
- ABSOLUTE LYMPHOCYTE [4]: 15030.67 CELLS/uL
- ABSOLUTE MONOCYTE [4]: 170.67 CELLS/uL
- ABSOLUTE SEGMENTED NEUTROPHIL [4]: 1746.67 CELLS/uL
- BASOPHIL [4]: 0%
- EOSINOPHIL [4]: 0.67%
- ERYTHROCYTE COUNT [4]: 5.72 x10E6/uL
- HEMATOCRIT [4]: 35.6%
- HEMOGLOBIN [4]: 13.43 G/DL
- LEUKOCYTE COUNT [4]: 17.07 x10E3/uL
- LYMPHOCYTE [4]: 88%
- MEAN CORPUSCULAR HEMOGLOBIN [4]: 23.53 pg
- MEAN CORPUSCULAR HEMOGLOBIN CONCENTRATION [4]: 37.77 G/DL
- MEAN CORPUSCULAR VOLUME [4]: 62.37 fL
- MONOCYTE [4]: 1%
- NEUTROPHIL [4]: 10.33%
- NUCLEATED RED BLOOD CELLS [4]: 0 /100WBC
- PLATELET COUNT [4]: 1344.67 x10E3/uL
- ALANINE AMINOTRANSFERASE [4]: 49.67 u/L
- ALBUMIN [4]: 4.07 G/DL
- ALKALINE PHOSPHATASE [4]: 305 u/L
- ASPARTATE AMINOTRANSFERASE [4]: 80.33 u/L
- BLOOD UREA NITROGEN [4]: 13.67 mg/dL
- CARBON DIOXIDE [4]: 26.33 mmol/L
- CHLORIDE [4]: 105 MEQ/L
- CHOLESTEROL [4]: 52.33 mg/dL
- CREATINE PHOSPHOKINASE [4]: 250.33 u/L
- CREATININE [4]: 0.19 mg/dL
- GLUCOSE [4]: 172.67 mg/dL
- LACTATE DEHYDROGENASE [4]: 79 u/L
- LIPASE [4]: 8 u/L
- PHOSPHORUS [4]: 12.5 mg/dL
- POTASSIUM [4]: 6.34 MEQ/L
- SODIUM [4]: 144.67 MEQ/L
- TOTAL BILIRUBIN [4]: 0.13 mg/dL
- TOTAL PROTEIN [4]: 6.03 G/DL
